According to patent publication US8034940B2, “Modulators of glucocorticoid receptor, AP-1, and/or NF-κB activity and use thereof” (Bristol-Myers Squibb Company, priority 2006, dated 2011):

Biological target: T1, human full-length glucocorticoid receptor (Homo sapiens, UniProt P04150)
T1 sequence (P04150 1-777): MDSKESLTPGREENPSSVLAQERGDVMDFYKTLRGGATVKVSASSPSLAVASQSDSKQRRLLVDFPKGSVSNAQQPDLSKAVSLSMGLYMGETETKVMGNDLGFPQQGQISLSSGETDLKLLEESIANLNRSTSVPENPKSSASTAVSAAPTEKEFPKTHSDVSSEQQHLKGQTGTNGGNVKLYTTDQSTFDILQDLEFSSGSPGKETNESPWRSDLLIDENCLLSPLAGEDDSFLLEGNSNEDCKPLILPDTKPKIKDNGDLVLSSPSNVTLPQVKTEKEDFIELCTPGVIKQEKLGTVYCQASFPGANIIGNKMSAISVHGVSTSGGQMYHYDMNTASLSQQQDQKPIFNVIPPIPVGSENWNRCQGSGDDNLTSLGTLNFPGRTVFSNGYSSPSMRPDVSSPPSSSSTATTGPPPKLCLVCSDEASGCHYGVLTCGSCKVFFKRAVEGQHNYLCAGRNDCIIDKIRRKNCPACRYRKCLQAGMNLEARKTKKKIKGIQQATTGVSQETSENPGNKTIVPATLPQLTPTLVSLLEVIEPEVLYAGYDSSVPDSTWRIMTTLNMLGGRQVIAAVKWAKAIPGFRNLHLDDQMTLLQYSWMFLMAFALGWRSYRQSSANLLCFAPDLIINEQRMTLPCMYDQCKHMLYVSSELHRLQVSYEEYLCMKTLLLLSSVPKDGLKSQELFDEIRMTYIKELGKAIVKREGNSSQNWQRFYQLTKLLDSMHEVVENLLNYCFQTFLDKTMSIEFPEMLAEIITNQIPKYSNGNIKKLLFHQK
Assay: Glucocorticoid Receptor Binding Assay (I), fluorescence polarization, Fluormone GS Red
Set-up: purified human recombinant full-length glucocorticoid receptor; purchased Invitrogen Part #2893
Settings: not given
Procedure: Glucocorticoid Receptor Binding Assay (I)^a
Briefly, purified human recombinant full-length glucocorticoid receptor (2 nM) was mixed with fluorescently labeled glucocorticoid (1 nM Fluormone GS Red) in the presence or absence of test compound. After two hour incubation at room temperature in the dark, the fluorescence polarization (FP) of the samples was measured. […] Test compounds were analyzed in the concentration range from 8.5E-05 μM to 5 μM.

Ki [nM]	SMILES
10.2	CC(C)(C(=O)Nc1nncs1)[C@H]1c2ccccc2Oc2nc(-c3ccc(C(=O)O)cc3)ccc21 [Example 174]
2.5	CC(C)(C(=O)Nc1nncs1)[C@H]1c2ccccc2Oc2nc(-c3ccc(C(N)=O)cc3)ccc21 [Example 215]
6.28	CNC(=O)c1ccc(-c2ccc3c(n2)Oc2ccccc2[C@@H]3C(C)(C)C(=O)Nc2nncs2)cc1F [Example 253]

Same assay, conditions: GR Binding Assay (I); read-out: GR (Ki, nM) (GR Binding Assay (I))

SMILES	Ki [nM]
O=C(c1ccc(-c2ccc3c(n2)Oc2ccccc2C3C2(C(=O)Nc3nncs3)CCC2)cc1)N1CCOCC1 (single isomer, unassigned) [Example 487]	> 1150
CC(C)(C(=O)Nc1nncs1)C1c2cccnc2Oc2c(F)cccc21 (stereo not drawn) [Example 72]	> 1150
CC(C)(C(=O)Nc1nncs1)C1c2ccccc2Oc2cc(C(=O)N3CCOCC3)ccc21 (stereo not drawn) [Example 116]	346
CNC(=O)c1ccc2c(c1)Oc1ccccc1C2C(C)(C)C(=O)Nc1nncs1 (stereo not drawn) [Example 117]	123
CC(C)(C(=O)Nc1nncs1)C1c2ccccc2Oc2cc(C(=O)NCc3ccccc3)ccc21 (stereo not drawn) [Example 118]	76.6
CC(C)(C(=O)Nc1nncs1)C1c2ccccc2Oc2cc(NC(=O)NCc3ccccc3)ccc21 (stereo not drawn) [Example 122]	80
CN(C)C(=O)c1ccc(-c2ccc3c(n2)Oc2ccccc2[C@H]3C(C)(C)C(=O)Nc2nncs2)cc1 [Example 168]	486
CC(C)(C(=O)Nc1nncs1)[C@H]1c2ccccc2Oc2nc(-c3ccc(OC4CCOCC4)c(F)c3)ccc21 [Example 242]	412
CC(C)(C(=O)Nc1nncs1)[C@H]1c2ccccc2Oc2nc(-c3ccc(OC4CCCCC4)c(F)c3)ccc21 [Example 243]	> 1150
CC(C)(C(=O)Nc1nncs1)[C@H]1c2ccccc2Oc2nc(-c3ccc(OC4CCCC4)c(F)c3)ccc21 [Example 244]	> 1150
CN1CCN(C(=O)c2ccc(-c3ccc4c(n3)Oc3ccccc3[C@@H]4C(C)(C)C(=O)Nc3nncs3)cc2)CC1 [Example 256]	180
COc1cc(-c2ccc3c(n2)Oc2ccccc2[C@@H]3C(C)(C)C(=O)Nc2nncs2)ccc1C(=O)N1CCCCC1 [Example 265]	126
CC1(C)CCCN(C(=O)c2ccc(-c3ccc4c(n3)Oc3ccccc3[C@@H]4C(C)(C)C(=O)Nc3nncs3)cc2)C1 [Example 271]	218

Results, then the molecule that gave them:

Ki [nM]	SMILES
65.1	CC(C)(C(=O)Nc1nncs1)C1c2ccccc2Oc2cc(NC(=O)NC3CC3)ccc21 (stereo not drawn) [Example 124]
62.6	CC(C)(C(=O)Nc1nncs1)C1c2ccccc2Oc2cc(C(N)=O)ccc21 (stereo not drawn) [Example 113]
49.9	CC(C)(C(=O)Nc1nncs1)C1c2ccccc2Oc2cc(C(=O)O)ccc21 (stereo not drawn) [Example 114]
45	CC(C(=O)Nc1nncs1)C1c2ccccc2Oc2nc(-c3ccc(C(=O)N(C)C)cc3)ccc21 (mixture of isomers) [Example 482]
33.5	CC(C)(C(=O)Nc1nncs1)[C@H]1c2ccccc2Oc2nc(-c3ccc(C(=O)N4CCC(c5ccccc5)CC4)cc3)ccc21 [Example 281]
30.5	CC(C)(C(=O)Nc1nncs1)[C@H]1c2ccccc2Oc2nc(-c3ccc(C(=O)N4CCC(Cc5ccccc5)CC4)cc3)ccc21 [Example 278]
20.8	CC(C)(C(=O)Nc1nncs1)[C@H]1c2ccccc2Oc2nc(-c3ccc(C(=O)N4CCC(CO)CC4)cc3)ccc21 [Example 279]
19.8	CC(C)(C(=O)Nc1nncs1)C1c2ccccc2Oc2cc(-c3ccc(C(=O)O)cn3)ccc21 (stereo not drawn) [Example 101]
18.2	CCN(CC)C(=O)c1ccc(-c2ccc3c(n2)Oc2ccccc2[C@@H]3C(C)(C)C(=O)Nc2nncs2)cc1OC [Example 262]
17.8	CC(C)(C(=O)Nc1nncs1)C1c2ccccc2Oc2cc(NC(=O)Nc3nccs3)ccc21 (stereo not drawn) [Example 123]
16.1	CN(Cc1ccccc1)C(=O)c1ccc(-c2ccc3c(n2)Oc2ccccc2[C@@H]3C(C)(C)C(=O)Nc2nncs2)cc1 [Example 255]
14.7	CC(C)(C(=O)Nc1nncs1)[C@H]1c2ccccc2Oc2nc(-c3ccc(C(=O)N4CCC(O)CC4)cc3)ccc21 [Example 269]
13.6	CC(C)(C(=O)Nc1nncs1)C1c2ccccc2Oc2cc(-c3ncc(C(=O)O)cn3)ccc21 (stereo not drawn) [Example 108]
12.6	COC[C@@H]1CCCN1C(=O)c1ccc(-c2ccc3c(n2)Oc2ccccc2[C@@H]3C(C)(C)C(=O)Nc2nncs2)cc1 [Example 272]
11.3	CC(C)(C(=O)Nc1nncs1)[C@H]1c2ccccc2Oc2nc(-c3ccc(S(=O)(=O)N4CCOCC4)cc3)ccc21 [Example 233]
9.45	CC1CCN(C(=O)c2ccc(-c3ccc4c(n3)Oc3ccccc3[C@@H]4C(C)(C)C(=O)Nc3nncs3)cc2)CC1 [Example 268]
9.44	CC(C)NS(=O)(=O)c1ccc(-c2ccc3c(n2)Oc2ccccc2[C@@H]3C(C)(C)C(=O)Nc2nncs2)cc1 [Example 236]
8.06	Cc1cc(-c2ccc3c(n2)Oc2ccccc2[C@@H]3C(C)(C)C(=O)Nc2nncs2)ccc1OC(C)C [Example 224]
7.95	CC(C)(C(=O)Nc1nncs1)[C@H]1c2ccccc2Oc2nc(-c3ccc(C(=O)O)c(F)c3)ccc21 [Example 213]
6.06	CC(C)(C(=O)Nc1nncs1)C1c2ccccc2Oc2cc(-c3ccc(C(=O)O)s3)ccc21 (stereo not drawn) [Example 103]
6.04	Cc1nnc(-c2ccc(-c3ccc4c(n3)Oc3ccccc3[C@@H]4C(C)(C)C(=O)Nc3nncs3)cc2)o1 [Example 237]
4.85	CC(C)(C(=O)Nc1nncs1)[C@H]1c2ccccc2Oc2nc(-c3ccc(S(=O)(=O)NC4CC4)cc3)ccc21 [Example 235]
4.57	CN(C)S(=O)(=O)c1ccc(-c2ccc3c(n2)Oc2ccccc2[C@@H]3C(C)(C)C(=O)Nc2nncs2)cc1 [Example 232]
4.5	CN(C)C(=O)c1ccc(-c2ccc3c(c2)Oc2ccccc2C3C(C)(C)C(=O)Nc2nncs2)s1 (stereo not drawn) [Example 104]
4.14	CC(C)(C(=O)Nc1nncs1)[C@H]1c2ccccc2Oc2nc(-c3cc4ccccc4o3)ccc21 [Example 216]
1.37	CC(C)(C(=O)Nc1nncs1)[C@H]1c2ccccc2Oc2nc(-c3ccc(S(C)(=O)=O)cc3)ccc21 [Example 214]
1.24	COc1ccc(-c2ccc3c(n2)Oc2ccccc2[C@@H]3C(C)(C)C(=O)Nc2nncs2)cn1 [Example 218]
1.01	CN(C)C(=O)c1ccc(-c2ccc3c(n2)Oc2ccccc2[C@@H]3C(C)(C)C(=O)Nc2nccs2)cc1 [Example 245]

System: AP-1 induced transcriptional activity
Assay: Cellular Transrepressional Assay (AP-1 luciferase reporter, PMA-activated A549 cells)
Type: cell-based
Settings: Homo sapiens, A549, 7 h, maximum inhibition, Cellular Transrepression Assay; read-out: AP-1 Max % inh (Cellular Transrepression Assay)
Summary of the method: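 Compounds tested from 0.1 nM to 40 μM during a 7 h PMA (10 ng/ml) stimulation of A549 cells stably transfected with 7× AP-1 sites driving luciferase. Repression expressed as % reduction of PMA-induced luminescence; EC50 by curve fitting.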

SMILES	Emax [%]
Cc1nnc(NC(=O)C(C)(C)[C@H]2c3ccccc3Oc3nc(-c4ccc(C(=O)N5CCOCC5)c(F)c4)ccc32)s1 [Example 472]	47
Cc1nnc(NC(=O)C(C)(C)[C@H]2c3ccccc3Oc3nc(-c4ccc(C(=O)N5CCOCC5)c(Cl)c4)ccc32)s1 [Example 473]	52.5
Cc1nnc(NC(=O)C(C)(C)[C@H]2c3ccccc3Oc3nc(-c4ccc(C(=O)N(C)C)c(F)c4)ccc32)s1 [Example 474]	37.9
Cc1nnc(NC(=O)C(C)(C)[C@H]2c3ccccc3Oc3nc(-c4ccc(C(=O)N5CCC(F)(F)C5)c(F)c4)ccc32)s1 [Example 477]	44.8
Cc1nsc(NC(=O)C(C)(C)[C@H]2c3ccccc3Oc3nc(-c4ccc(C(=O)N5CCOCC5)cc4)ccc32)n1 [Example 478]	41.8
CN(C)C(=O)c1ccc(-c2ccc3c(n2)Oc2ccccc2C3C2(C(=O)Nc3nncs3)CCC2)cc1 (stereo not drawn) [Example 479]	44.4
CN(C)C(=O)c1ccc(-c2ccc3c(n2)Oc2ccccc2C3C2(C(=O)Nc3nncs3)CCCC2)cc1 (stereo not drawn) [Example 484]	29.8
CN(C)C(=O)c1ccc(-c2ccc3c(n2)Oc2ccccc2C3C2(C(=O)Nc3ncns3)CCCC2)cc1 (stereo not drawn) [Example 485]	38.9
O=C(c1ccc(-c2ccc3c(n2)Oc2ccccc2C3C2(C(=O)Nc3nncs3)CCC2)cc1)N1CCOCC1 (stereo not drawn) [Example 486]	50.3
Cc1nnc(NC(=O)C2(C3c4ccccc4Oc4nc(-c5ccc(C(=O)N(C)C)cc5)ccc43)CCC2)s1 (stereo not drawn) [Example 488]	34.5
CC(C)(C(=O)Nc1nncs1)C1c2ccccc2Oc2cc(-c3ccc(C(=O)N4CCOCC4)cc3)ncc21 (stereo not drawn) [Example 492]	28.4

Same assay, conditions: Homo sapiens, A549, Cellular Transrepression Assay

EC50 [nM]	SMILES
26.9	Cc1nnc(NC(=O)C(C)(C)[C@H]2c3ccccc3Oc3nc(-c4ccc(C(=O)N5CCOCC5)c(F)c4)ccc32)s1 [Example 472]
40.2	Cc1nnc(NC(=O)C(C)(C)[C@H]2c3ccccc3Oc3nc(-c4ccc(C(=O)N5CCOCC5)c(Cl)c4)ccc32)s1 [Example 473]
85.4	Cc1nnc(NC(=O)C(C)(C)[C@H]2c3ccccc3Oc3nc(-c4ccc(C(=O)N(C)C)c(F)c4)ccc32)s1 [Example 474]
39.8	Cc1nnc(NC(=O)C(C)(C)[C@H]2c3ccccc3Oc3nc(-c4ccc(C(=O)N5CCC(F)(F)C5)c(F)c4)ccc32)s1 [Example 477]
16	Cc1nsc(NC(=O)C(C)(C)[C@H]2c3ccccc3Oc3nc(-c4ccc(C(=O)N5CCOCC5)cc4)ccc32)n1 [Example 478]
47	CN(C)C(=O)c1ccc(-c2ccc3c(n2)Oc2ccccc2C3C2(C(=O)Nc3nncs3)CCC2)cc1 (stereo not drawn) [Example 479]
19.3	CN(C)C(=O)c1ccc(-c2ccc3c(n2)Oc2ccccc2C3C2(C(=O)Nc3nncs3)CCCC2)cc1 (stereo not drawn) [Example 484]
42.4	CN(C)C(=O)c1ccc(-c2ccc3c(n2)Oc2ccccc2C3C2(C(=O)Nc3ncns3)CCCC2)cc1 (stereo not drawn) [Example 485]
15.8	O=C(c1ccc(-c2ccc3c(n2)Oc2ccccc2C3C2(C(=O)Nc3nncs3)CCC2)cc1)N1CCOCC1 (stereo not drawn) [Example 486]
42.9	Cc1nnc(NC(=O)C2(C3c4ccccc4Oc4nc(-c5ccc(C(=O)N(C)C)cc5)ccc43)CCC2)s1 (stereo not drawn) [Example 488]
182	CC(C)(C(=O)Nc1nncs1)C1c2ccccc2Oc2cc(-c3ccc(C(=O)N4CCOCC4)cc3)ncc21 (stereo not drawn) [Example 492]
